The source of these data is patent US20070111199A1, “Compounds and method of identifying, synthesizing, optimizing and profiling protein modulators” (priority 2005, published 2007).

SMILES strings stand for the structures. Bounds are passed on as bounds.

The first assay deals with T1, Ba/F3 cells overexpressing the p210^Bcr-Abl-T315I theramutein (Homo sapiens, UniProt P00519, T315I, cells depend on it).
T1 construct: fused on or other part: P11274 (Breakpoint cluster region protein)
Put plainly: phenoresponse-based cellular assay (cell count/viability), Ba/F3 T315I test cells. Also noted: species or system murine. The settings on record: FIG. 17.
Turning to `O=C(Nc1cccc(C(F)(F)F)c1)c1cccc(/C=N/Nc2ncc(F)c(N3CCOCC3)n2)n1` [Example C2-122], the “relative potency in the phenoresponse-based assay” value is “less potent than several of the other compounds tested”.

The same assay, now with this note: T315I vs control Ba/F3 cells, FIG. 1.
Take `Oc1c(Cl)cc(Br)cc1/C=N\Nc1ncc(F)c(N2CCOCC2)n1` [Example C2]: the “concentration showing the largest specificity gap within the dose-response series” value is on record as 500 nM.

The same assay, now with this note: read-out: T315I (IC50 activity category, growth inhibition by 50%); Ba/F3 T315I cell line.
As for `Fc1cnc(N/N=C/c2ccc(Nc3ccc(-c4ccccn4)c(Cl)c3)cn2)nc1N1CCOCC1`, the GI50 was below 1000 nM.

For the molecule `O=C(Nc1cccc(C(F)(F)F)c1)c1cc(Cl)c(O)c(/C=N\Nc2ncc(F)c(N3CCOCC3)n2)c1`, the GI50 is below 1000 nM.

In the case of `O=C(Nc1cccc(C(F)(F)F)c1)c1ccc(/C=N/Nc2ncc(F)c(N3CCOCC3)n2)nc1`, the GI50 was below 1000 nM.

With `Oc1ccccc1/C=N/Nc1ncc(F)c(N2CCOCC2)n1`, the GI50 is below 10000 nM.

As for `O=C(Nc1cccc(C(F)(F)F)c1)c1cccc(/C=N/Nc2ncc(F)c(N3CCOCC3)n2)n1` [drawing 209], the GI50 is above 10000 nM.

Consider `Fc1cnc(N/N=C/c2ccc(-c3cccc(C(F)(F)F)c3)cn2)nc1N1CCOCC1`, for which the GI50 is below 1000 nM.

`CN(C)c1cc(O)cc(Nc2ccc(/C=N/Nc3ncc(F)c(N4CCOCC4)n3)nc2)c1`: the GI50 is below 1000 nM.

With `Cc1ccc(/C=N/Nc2ncc(F)c(N3CCOCC3)n2)cc1`, the GI50 was above 10000 nM.

For the molecule `Fc1cnc(N/N=C/c2ccc(Nc3cccc(-n4ccnc4)c3)cn2)nc1N1CCOCC1`, the GI50 is below 1000 nM.

For `Cc1ccccc1/C=N/Nc1ncc(F)c(N2CCOCC2)n1`, the GI50 is above 10000 nM.

Consider `Cc1cc(Nc2cccc(C(F)(F)F)c2)ccc1/C=N/Nc1ncc(F)c(N2CCOCC2)n1`, for which the GI50 was above 10000 nM.

Regarding `Oc1cccc(Nc2cccc(Nc3ccc(/C=N/Nc4ncc(F)c(N5CCOCC5)n4)nc3)c2)c1`, the GI50 was below 1000 nM.

Turning to `CC(C(=O)O)c1ccc(Nc2ccc(/C=N/Nc3ncc(F)c(N4CCOCC4)n3)nc2)cc1` (stereo not shown), the GI50 is above 10000 nM.

Regarding `Fc1cnc(N/N=C/c2ccccc2)nc1N1CCOCC1`, the GI50 is above 10000 nM.

Regarding `Fc1cnc(N/N=C/c2ccccn2)nc1N1CCOCC1`, the GI50 is below 1000 nM.

For `Oc1ccc(Br)cc1/C=N/Nc1ncc(F)c(N2CCOCC2)n1`, the GI50 was below 1000 nM.

As to `Cc1cccc(Cl)c1NC(=O)C/C=N/Nc1ncc(F)c(N2CCOCC2)n1`, the GI50 is above 10000 nM.

As for `Fc1cnc(N/N=C/c2ccc(Nc3cccc(C(F)(F)F)c3)cn2)nc1-c1cncc(-c2ccccc2)c1`, the GI50 is below 1000 nM.

As to `O=C(NNc1ncc(F)c(N2CCOCC2)n1)c1ccc(Nc2cccc(C(F)(F)F)c2)cn1`, the GI50 is below 1000 nM.

`Cc1cc(Nc2ccc(/C=N/Nc3ncc(F)c(N4CCOCC4)n3)nc2)cc(N2CCNCC2)c1`: the GI50 was below 1000 nM.

With `Fc1cnc(N/N=C/c2ccc(Nc3cccc(C(F)(F)F)c3)cn2)nc1-c1cncc(C2CC2)c1`, the GI50 was below 10000 nM.

With `Fc1cnc(N/N=C/c2ccc(Nc3ccc(N4CCOCC4)cc3)cn2)nc1N1CCOCC1`, the GI50 was below 1000 nM.

The next assay concerns P210 T315I mutant kinase domain (120 Kd). Put plainly: cell-free purified protein kinase autophosphorylation assay, T315I kinase domain. The settings on record: 20 μM cell-free, FIGS. 17 and 18. The class given is biochemical, human. Here is the method:
Each of the compounds was also tested in a standard cell free protein kinase autophosphorylation assay at a concentration of 20 μM as shown in FIG. 18.
For `O=C(Nc1cccc(C(F)(F)F)c1)c1cccc(/C=N/Nc2ncc(F)c(N3CCOCC3)n2)n1` [Example C2-122], the “relative potency, cell-free assay vs phenoresponse-based cellular assay” value is on record as “more potent in the cell-free assay than in the phenoresponse-based cellular system”.
